Like-named read-outs stand apart in the source and are kept apart here.
Tests used:
[1] = tested on: primary rat hepatocytes; assay: Inhibition of lipid synthesis ([1-14C]-acetate incorporation) in primary cultures of rat hepatocytes; assay type: cell-based; details: Hepatocyte, 4 h incubation with [1-14C]-acetate, Table 6
Protocol: Compounds were tested for inhibition of lipid synthesis in primary cultures of rat hepatocytes. Male Sprague-Dawley rats were anesthetized with intraperitoneal injection of sodium pentobarbital (80 mg/kg). Rat hepatocytes were isolated essentially as described by the method of Seglen (Seglen, P. O. Hepatocyte suspensions and cultures as tools in experimental carcinogenesis. J. Toxicol. Environ. Health 1979, 5, 551-560). Hepatocytes were suspended in Dulbecco's Modified Eagles Medium containing 25 mM D-glucose, 14 mM HEPES, 5 mM L-glutamine, 5 mM leucine, 5 mM alanine, 10 mM lactate, 1 mM pyruvate, 0.2% bovine serum albumin, 17.4 mM non-essential amino acids, 20% fetal bovine serum, […] and 20 μg/mL gentamycin) and plated at a density of 1.5×10^5 cells/cm^2 on collagen-coated 96-well plates. Four hours after plating, media was replaced with the same media without serum. Cells were grown overnight to allow formation of monolayer cultures. Lipid synthesis incubation conditions were initially assessed to ensure the linearity of [1-^14C]-acetate incorporation into hepatocyte lipids for up to 4 hours. Hepatocyte lipid synthesis inhibitory activity was assessed during incubations in the presence of 0.25 μCi [1-^14C]-acetate/well (final radiospecific activity in assay is 1 Ci/mol) and 0, 1, 3, 10, 30, 100 or 300 μM of compounds for 4 hours. At the end of the 4-hour incubation period, medium was discarded and cells were washed twice with ice-cold phosphate buffered saline and stored frozen prior to analysis. To determine total lipid synthesis, 170 μl of MicroScint-E® and 50 μl water was added to each well to extract and partition the lipid soluble products to the upper organic phase containing the scintillant. Lipid radioactivity was assessed by scintillation spectroscopy in a Packard TopCount NXT.

[2] = tested on: female obese Zucker rats; assay: Serum lipid and glycemic control variables in chow-fed obese female Zucker rats, daily oral gavage for two weeks; assay type: in vivo, rat; details: Rattus norvegicus, 100 mg/kg daily oral, 100% = 2-fold increase, Table 8
Protocol: Ten- to twelve-week old (400-500 grams) female Zucker fatty rats Cr1: (Zuc)-faBR were obtained from Charles River Laboratories. Animals were acclimated to the laboratory environment for seven days. During the acclimation and study period, animals were housed by group in shoebox polycarbonate cages on Cellu-Dri bedding. The temperature and humidity in the animals' quarters (68-78° F.; 30-75% RH) were monitored and the airflow in the room was sufficient to provide several exchanges per hour with 100% fresh filtered air. An automatic timing device provided an alternating 12-hour cycle of light and dark. Rats received pelleted Purina Laboratory Rodent Chow® (5001) prior to and during the drug intervention period except for a 6-hour phase prior to blood sampling. Fresh water was supplied ad libitum via an automatic watering system. Compounds were dissolved, suspended by mixing in a dosing vehicle consisting of 1.5% carboxymethylcellulose/0.2% Tween 20 or 20% ethanol and 80% polyethylene glycol-200 [v/v]. Dose volume of vehicle or vehicle plus each compound was set at 0.25% of body weight in order to deliver the appropriate dose. Doses were administered daily by oral gavage, approximately between 8-10 AM. Regarding blood sampling, animals were fasted for 6 hours prior to all blood collections. Prior to and after 7 days of dosing, a 1.0- to 2.0-mL sample of blood was collected by administering O2/CO2 anesthesia and bleeding from the orbital venous plexus. Following 14 days of dosing, blood was collected by cardiac puncture after euthanasia with CO2. All blood samples were processed for separation of serum and stored at −80° C. until analysis. Commercially available kits were used to determine serum triglycerides (Roche Diagnostic Corporation, Kit No. 148899 or Boehringer Mannheim, Kit No. 1488872), total cholesterol (Roche Diagnostic Corporation, Kit No. 450061), non-esterified fatty acids (Wako Chemicals, Kit No. 994-75409) and β-hydroxybutyrate (Wako Chemicals, Kit No. 417-73501 or Sigma Kit. No. 310-0) on a Hitachi 912 Automatic Analyzer (Roche Diagnostic Corporation). In some instances, an in-house cholesterol reagent was used to determine total serum cholesterol levels. Serum lipoprotein cholesterol levels were determined by lipoprotein profile analysis. Lipoprotein profiles were analyzed using gel-filtration chromatography on a Superose 6HR (1×30 cm) column equipped with on-line detection of total cholesterol as described by Kieft et al (Kieft, K. A.; Bocan, T. M.; Krause, B. R. Rapid on-line determination of cholesterol distribution among plasma lipoproteins after high-performance gel filtration chromatography. J. Lipid Res. 1991, 32, 859-866.). The total cholesterol content of each lipoprotein was calculated by multiplying the independent values determined for serum total cholesterol by the percent area of each lipoprotein in the profile. The percent body weight gain and the ratio of liver to body weight is also determined. Selected data are shown as absolute values or as a percent change of the pretreatment values in Tables 8 and 9.
Select compounds (214c, 210c, and 210g) were further evalutated in the Zucker rat by performing a full dose response and measuring additional scrum variables including markers for diabetes (Tables 10-12).

[3] = 168 h, 1 wk, read-out: HDL-Cholesterol, Percent Change from Pre-Treatment
[4] = 168 h, 1 wk, read-out: NonHDL-Cholesterol, Percent Change from Pre-Treatment
[5] = 168 h, 1 wk, read-out: TG, Percent Change from Pre-Treatment
[6] = 336 h, 2 wk, read-out: HDL-Cholesterol, Percent Change from Pre-Treatment
[7] = 336 h, 2 wk, read-out: NonHDL-Cholesterol, Percent Change from Pre-Treatment
[8] = 336 h, 2 wk, read-out: TG, Percent Change from Pre-Treatment

Row | SMILES | melting point [°C] | IC50 [1] [nM] | change in vivo at 100 mg/kg [2, 3] [%] | change in vivo at 100 mg/kg [2, 4] [%] | change in vivo at 100 mg/kg [2, 5] [%] | change in vivo at 100 mg/kg [2, 6] [%] | change in vivo at 100 mg/kg [2, 7] [%] | change in vivo at 100 mg/kg [2, 8] [%]
1 | O=C(CCCCC1(C(=O)O)CC1)CCCCC1(C(=O)O)CC1 [Compound 107d, 1-[9-(1-Carboxycyclopropyl)-5-oxononyl]-1-cyclopropanecarboxylic acid] | 132 to 134 | 300 | 180 | 22 | -51 | 260 | 63 | -28
2 | O=C(CCCCC1(C(=O)O)CCC1)CCCCC1(C(=O)O)CCC1 [Compound 107f, 1-[9-(1-Carboxycyclobutyl)-5-oxononyl]-1-cyclo-butanecarboxylic acid] | 69 to 70 | 121000 | -1 | -32 | -58 | 10 | -40 | -59
3 | CC(C)(CCCCC(=O)CCCCC1(C(=O)O)CC1)C(=O)O [Compound 107c, 11-(1-Carboxycyclopropyl)-2,2-dimethyl-7-oxoundecanoic acid] | 49 to 52 | 600 | 104 | -84 | -93 | 248 | -20 | -64

Continued, in another order:

Row | melting point [°C] | SMILES | IC50 [1] [nM] | change in vivo at 100 mg/kg [2, 3] [%] | change in vivo at 100 mg/kg [2, 4] [%] | change in vivo at 100 mg/kg [2, 5] [%] | change in vivo at 100 mg/kg [2, 6] [%] | change in vivo at 100 mg/kg [2, 7] [%] | change in vivo at 100 mg/kg [2, 8] [%]
4 | 74 to 77 | CC(C)(CCCCCCCC(=O)CCCCCCCC(C)(C)C(=O)O)C(=O)O [Compound 107n, 10-Oxo-2,2,18,18-tetramethyl-nonadecanedioic acid] | 10000 | 44 | -80 | -85 | 86 | -45 | -64
5 | 122 to 123 | O=C(CCCCCC1(C(=O)O)CC1)CCCCCC1(C(=O)O)CC1 [Compound 107l, 1-[11-(1-Carboxycyclopropyl)-6-oxoundecyl]-1-cyclopropanecarboxylic acid] | 500 | 136 | -92 | -95 | 171 | -83 | -94

— US7304093B2, “Ketone compounds and compositions for cholesterol management and related uses” (Esperion Therapeutics, Inc., priority 2000, dated 2007)
